# Experimental data as given in patent US12599672B2, “KRAS proteolysis targeting chimeras” (PAQ Therapeutics Inc., priority 2023, dated 2026).
# Key:
# Type in all cases: cell-based
# KRAS G12D = molecular target: T1, KRAS G12D (Homo sapiens, UniProt P01116, G12D); experiment: KRAS G12D HiBit assay; settings: AsPc-1-KRAS (G12D)-HiBit-KI cell, compound treatment for 24 hours, absolute DC50
# T1 construct: AsPc-1-KRAS (G12D)-HiBit-KI cell (Pharmaron); host or cells: AsPc-1-KRAS (G12D)-HiBit-KI cells (HiBiT knock-in at the endogenous KRAS locus)
# Method in brief: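 Cells were treated for 24 h with compounds in a 3-fold, 10-point dilution series from a 0.3 mM DMSO stock, then equilibrated 15 min at room temperature. KRAS G12D HiBiT levels were read by luminescence after lytic Nano-Glo HiBiT reagent with LgBiT; inhibition calculated relative to 0.1% DMSO high control.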
# KRAS G12V = molecular target: T2, KRAS G12V (Homo sapiens, UniProt P01116, G12V); experiment: KRAS G12V HiBit assay; settings: SW620-KRAS (G12V)-HiBit-KI cells, compound treatment for 24 hours, class symbols
# T2 construct: SW620-KRAS (G12V)-HiBit-KI cell (Pharmaron); host or cells: SW620-KRAS (G12V)-HiBit-KI cells (HiBiT knock-in at the endogenous KRAS locus)
# Method in brief: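 HiBiT-tagged KRAS G12V cells treated 24 h with compound in a 3-fold, 10-point series (0.3 mM DMSO stock); lytic HiBiT reagent with LgBiT added after 15 min room-temperature equilibration. Degradation calculated against 0.1% DMSO high control.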
# KRAS = molecular target: T3, KRAS (Homo sapiens, UniProt P01116); experiment: KRASamp MSD assay; settings: KE39 (KRAS amplified) cells, treated with test compounds for 24 hr, MSD readout of KRAS degradation
# T3 construct: endogenous in cells; host or cells: KE39 (KRAS amplified) cells
# Method in brief: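 KRAS-amplified KE39 cells treated with compound for 24 hr, then lysed in RIPA buffer with protease/phosphatase inhibitors. KRAS protein measured by MSD sandwich immunoassay against a recombinant WT KRAS standard curve; DC50 derived from curve fitting of degradation.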
# T2 sequence (P01116 1-188 isoform P01116-2 G12V): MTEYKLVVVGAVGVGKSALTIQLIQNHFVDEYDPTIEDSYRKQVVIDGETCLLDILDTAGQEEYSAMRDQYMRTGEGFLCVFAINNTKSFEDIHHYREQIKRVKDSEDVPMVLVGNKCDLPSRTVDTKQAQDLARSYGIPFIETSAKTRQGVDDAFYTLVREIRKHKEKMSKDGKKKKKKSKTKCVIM
# T3 sequence (P01116 1-188 isoform P01116-2): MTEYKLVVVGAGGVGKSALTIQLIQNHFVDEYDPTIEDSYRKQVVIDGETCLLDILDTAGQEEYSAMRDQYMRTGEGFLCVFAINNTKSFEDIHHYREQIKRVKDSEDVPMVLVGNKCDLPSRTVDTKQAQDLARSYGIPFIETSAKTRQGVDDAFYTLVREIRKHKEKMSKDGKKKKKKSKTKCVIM
# T1 sequence (P01116 1-188 isoform P01116-2 G12D): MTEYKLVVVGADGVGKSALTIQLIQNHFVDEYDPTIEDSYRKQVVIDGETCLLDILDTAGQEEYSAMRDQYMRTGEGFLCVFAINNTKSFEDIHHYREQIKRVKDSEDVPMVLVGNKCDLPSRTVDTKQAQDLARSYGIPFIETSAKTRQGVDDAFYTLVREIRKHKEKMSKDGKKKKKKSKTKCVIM
DC50 (KRAS G12D; class symbols),DC50 (KRAS G12V),DC50 (KRAS),DC50 (KRAS G12D; numeric bounds given in place of class symbols),SMILES
< 100 nM,< 10 nM,< 1 nM,–,"CCc1c(F)ccc2cc(O)cc(-c3ncc4c(N5CCC[C@](C)(N)C5)nc(OC[C@@]56CCCN5[C@H](COC(=O)N5CCC7(CC5)CC(N5CCC(c8ccc9c(c8)n(C)c(=O)n9C8CCC(=O)NC8=O)CC5)C7)CC6)nc4c3F)c12 (stereo partly drawn) [Compound 478, ((3S,7aS)-7a-(((4-((S)-3-amino-3-methylpiperidin-1-yl)-7-(8-ethyl-7-fluoro-3-hydroxynaphthalen-1-yl)-8-fluoropyrido[4,3-d]pyrimidin-2-yl)oxy)methyl)hexahydro-1H-pyrrolizin-3-yl)methyl 2-(4-(1-(2,6-dioxopiperidin-3-yl)-3-methyl-2-oxo-2,3-dihydro-1H-benzo[d]imidazol-5-yl)piperidin-1-yl)-7-azaspiro[3.5]nonane-7-carboxylate]"
–,> 100 nM,≥ 10 nM,> 100 nM,"CCc1c(F)ccc2cc(O)cc(-c3ncc4c(N5CCC[C@@](C)(N)C5)nc(OC[C@@]56CCCN5[C@H](COC(=O)N5CCC7(CC5)CC(N5CCC(c8ccc9c(c8)n(C)c(=O)n9C8CCC(=O)NC8=O)CC5)C7)CC6)nc4c3F)c12 (stereo partly drawn) [Compound 479, ((3S,7aS)-7a-(((4-((R)-3-amino-3-methylpiperidin-1-yl)-7-(8-ethyl-7-fluoro-3-hydroxynaphthalen-1-yl)-8-fluoropyrido[4,3-d]pyrimidin-2-yl)oxy)methyl)hexahydro-1H-pyrrolizin-3-yl)methyl 2-(4-(1-(2,6-dioxopiperidin-3-yl)-3-methyl-2-oxo-2,3-dihydro-1H-benzo[d]imidazol-5-yl)piperidin-1-yl)-7-azaspiro[3.5]nonane-7-carboxylate]"
< 100 nM,10 to 100 nM,≥ 10 nM,–,"CCc1c(F)ccc2cc(O)cc(-c3ncc4c(N5CCC[C@@](C)(O)C5)nc(OC[C@@]56CCCN5[C@H](CNC(=O)c5ccc(CN7CCC(c8ccc9c(c8)n(C)c(=O)n9C8CCC(=O)NC8=O)CC7)cc5)CC6)nc4c3F)c12 (stereo partly drawn) [Compound 484, 4-((4-(1-(2,6-dioxopiperidin-3-yl)-3-methyl-2-oxo-2,3-dihydro-1H-benzo[d]imidazol-5-yl)piperidin-1-yl)methyl)-N-(((3S,7aS)-7a-(((7-(8-ethyl-7-fluoro-3-hydroxynaphthalen-1-yl)-8-fluoro-4-((R)-3-hydroxy-3-methylpiperidin-1-yl)pyrido[4,3-d]pyrimidin-2-yl)oxy)methyl)hexahydro-1H-pyrrolizin-3-yl)methyl)benzamide]"
< 100 nM,< 10 nM,< 1 nM,–,"CCc1c(F)ccc2cc(O)cc(-c3ncc4c(N5CCCOCC5)nc(OC[C@@]56CCCN5[C@H](COC(=O)N5CCC7(CC5)CC(N5CCC(c8ccc9c(c8)n(C)c(=O)n9C8CCC(=O)NC8=O)CC5)C7)CC6)nc4c3F)c12 (stereo partly drawn) [Compound 489, ((3S,7aS)-7a-(((7-(8-ethyl-7-fluoro-3-hydroxynaphthalen-1-yl)-8-fluoro-4-(1,4-oxazepan-4-yl)pyrido[4,3-d]pyrimidin-2-yl)oxy)methyl)hexahydro-1H-pyrrolizin-3-yl)methyl 2-(4-(1-(2,6-dioxopiperidin-3-yl)-3-methyl-2-oxo-2,3-dihydro-1H-benzo[d]imidazol-5-yl)piperidin-1-yl)-7-azaspiro[3.5]nonane-7-carboxylate]"
< 100 nM,< 10 nM,< 1 nM,–,"CCc1c(F)ccc2cc(O)cc(-c3ncc4c(N5CCC[C@@](C)(O)C5)nc(OC[C@@]56CCCN5[C@H](COC(=O)N5CCC(C#CC7CCN(c8ccc9c(c8)n(C)c(=O)n9C8CCC(=O)NC8=O)CC7)CC5)CC6)nc4c3F)c12 (stereo partly drawn) [Compound 500, [(3S,7aS)-7a-({[7-(8-ethyl-7-fluoro-3-hydroxynaphthalen-1-yl)-8-fluoro-4-[(3R)-3-hydroxy-3-methylpiperidin-1-yl]pyrido[4,3-d]pyrimidin-2-yl]oxy}methyl)-hexahydropyrrolizin-3-yl]methyl 4-(2-{1-[1-(2,6-dioxopiperidin-3-yl)-3-methyl-2-oxo-1,3-benzodiazol-5-yl]piperidin-4-yl}ethynyl) piperidine-1-carboxylate]"
